For one assay, the system named is SD rat. Put plainly: Increase of rat blood pressure by S1P. The class given is in vivo. The following applies: anesthetized male SD rat, intraperitoneally injected. The procedure: Male SD Rat (8 weeks old-10 weeks old) was anesthetized by injection of pentobarbital sodium (50 mg/mL/kg), after midline incision in the cervical region, trachea was exposed by exfoliation of tracheal muscle layer and cannula made of polyethylene was inserted into trachea. Next, catheter made of polyethylene was inserted into the common carotid artery and the common jugular vein. Catheter inserted into the common carotid artery was connected to the piezotransducer and the blood pressure was recorded on the recorder through strain compression amplifier. After the above mentioned operation was finished, in the case of the spinal chord was broken, the spinal chord was broken by insertion of stainless pole into the spinal chord cavity. After the spinal chord was broken, tracheal cannula was immediately connected into the artificial breathing device for small animals and artificial ventilation was performed under the conditions of a ventilatory volume 6 mL/kg and velocity 60 times/min. After then, S1P was administered and we confirmed blood pressure was increased. […] As a result, the compound (3) inhibited the increase of blood pressure by S1P.

A further assay deals with rat basilar artery. As to the kind of experiment: Vasoconstrictor action of rat basilar artery induced by S1P into cisterna (in vivo). The following applies: 10 μg/100 μL/rat, i.c., 30 minutes after S1P into cisterna. An excerpt: Rat (CD(SD)IGS, male, Charles River Japan Inc., 11 weeks old-13 weeks old, 400-550 g) was anesthetized by injection of urethane (1.2 g/kg, s.c.), incised scalp of occipital for administration of S1P into cisterna and then fixed to dorsal position. Rat was inserted into trachea with catheter and then, cut down with esophagus, and skull at the base of brain was exposed. Under the stereomicroscope, craniotomy was carefully operated with electric drill and scorper forceps. We made basilar artery expose, and it was done in the condition which arachnoid was left, and coating on basilar artery was exfoliated, and could be observed. Observation and image capture of basilar artery were performed using the stereomicroscope (Olympus Optics Inc., SZH-10) and charge-coupled device (CCD) camera (FUJIFILM, HC-2500) connected with it. Macscope (MITANI Corp.) was used as an Image capture software. […] Diameter of basilar artery was measured by selecting from an area having no branch in the center of basilar artery. The diameter was calculated by comparing with the length of micrometer (0.2 mm, 0.01 mm scale) shooted in the same condition. […] The calculation of percentage of basilar artery diameter was calculated by dividing diameter after the S1P administration by a pre-value. […]

Structures are written as SMILES. Entries after “also recorded” stand apart in the source; their conditions may differ.

For `Cc1nn(C)c2nc(NNC(=O)Nc3cc(Cl)nc(Cl)c3)cc(C(C)C)c12` [compound (3), N-(2,6-dichloro-4-piridinyl)-2-(4-isopropyl-1,3-dimethyl-1H-pyrazolo[3,4-b]pyridin-6-yl)hydrazinecarboxamide], the “inhibition of the increase of blood pressure by S1P” value with SD rat is given as “inhibited”. Moreover, in the assay on rat basilar artery, the “inhibition of vasoconstrictor action of rat basilar artery by S1P (basilar artery diameter)” value is given as “inhibited; also recorded: suppression”.

The record behind these values is US8765783B2, “Pharmaceutical composition for treatment of disease due to vascular constriction or vasodilation” (Ono Pharmaceuticals Co., Ltd., priority 2002, dated 2014).
